Experimental findings from US5530097A, “Human cancer inhibitory peptide amides” (Arizona Board of Regents acting on behalf of Arizona State …, priority 1994, dated 1996) are described below.

Experiment [1] concerns MX-1 Human Mammary Xenograft. Description: Experimental anticancer activity in murine in vivo systems (Tumor Regression). As to conditions: MX-1 (Tumor Regression).
Experiment [2] relates to A498. Description: NCI in vitro mini panel, human cancer cell line growth inhibition. The class given is cell-based. Conditions: Renal A498, 48 hrs. The protocol: (§1) ED50 (P388) and GI50 (HTCL) identify the drug dose which reduces the percent tumor/cell growth to 50%. There is no mathematical difference between ED50 and GI50, both of which are calculated using the same formula. The only difference is historical usage.
(§2) TGI, means "Total Growth Inhibition", and identifies the drug dose needed to yield zero percent growth, i.e. there are just as many cells at the end of the experiment as were present at the beginning. Whether just as many cells were killed as were produced (steady state), or no growth occurred (total inhibition) cannot be distinguished.
(§3) LC50, means "Lethal Concentration 50%", and identifies the drug concentration which reduces to one-half of the cells originally present at the beginning of the experiment.
(§4) Each drug is tested at five (5) doses: 100--10-1-0.1--0.01 μg/mL. Percent Growths are calculated for each dose. The two (or three) doses with growth values above, below, (or near to) 50% growth are used to calculate the ED50 /GI50 values using a linear regression computation. If no dose yields a growth value under 50%, the results are expressed as: ED50 >(highest dose). If no dose yields growth higher than 50% growth, then ED50 <(lowest dose). Similar calculations are performed for the TGI at 0% growth, and at -50% growth for the LC50.
(§5) At the start of each experiment, cells from the in vitro cell cultures are inoculated into the appropriate tubes or microtiter plates. One set of control tubes/plates is immediately counted to determine the number of cells at the start of the experiment. This is the "baseline count", or "Tzero reading". At the end of the experiment (48 hrs later), a second set of control tubes/plates is analyzed to determine the "Control Growth" value. The growth (or death) of cells relative to the initial quantity of cells is used to define the "Percent of Growth."
(§6) Similarly, the compounds disclosed herein have also been tested against an NCI in vitro mini panel. For each of six cell lines GI50, TGI, and LC50 amounts were calculated for each compound. Each compound was also tested against the PS-388 cell line and for this test an ED50 was calculated.
(§7) The protocols followed, for the NCI minipanel are, except for the number of cell lines, those established by M. R. Boyd Ph.D., and well known to those of ordinary skill in the art. The procedure followed for the test against PS-388 Leukemia is the same that was followed in the superseded NCI P-388 screening test, which is also well known to those having ordinary skill in the art.

In experiment [3] the test system is KM20L2. Described as above. As to conditions: Colon KM20L2, 48 hrs. The class given is cell-based. As to the method:
as §1, §2, §3, §4, §5, §6, §7

Experiment [4] relates to NCI-H460. The experiment is described as above. The experiment is classed as cell-based. Conditions: Lung-NSC NCI-H460, 48 hrs. The protocol: as §1, §2, §3, §4, §5, §6, §7
Experiment [5] concerns OVCAR-3. Described as above. The class given is cell-based. Conditions: Ovarian OVCAR-3, 48 hrs. As to the method: as §1, §2, §3, §4, §5, §6, §7
For experiment [6], the system named is SF-295. The experiment is described as above. The class given is cell-based. Conditions: CNS SF-295, 48 hrs. The protocol: as §1, §2, §3, §4, §5, §6, §7
Experiment [7] concerns SK-MEL-5. The description is as above. The class given is cell-based. Conditions: Melanoma SK-MEL-5, 48 hrs. As to the method:
as §1, §2, §3, §4, §5, §6, §7

For experiment [8], the system named is PS-388. Nature of the experiment: PS-388 mouse leukemia cell line test. The class given is cell-based. As to conditions: Mouse Leukemia PS-388. The protocol:
as §1, §4, §5, §6, §7

Some results are limits rather than exact numbers.

By TGI is commonly meant the concentration giving total growth inhibition.

With Dolastatin 10, the T/C in experiment [1] (6.25 μg/kg) is listed as 69; in experiment [1] (13 μg/kg) it was 61; in experiment [1] (26 μg/kg), 50; in experiment [1] (52 μg/kg), 14.
For the substance “L-Dolavalyl-L-Leucyl-N-methyl-(3R,4S,5S)-Dolaisoleuinyl-(2R,3R,4S)-Dolaproinyl-N-2(4-chlorophenyl) ethylamide [10d]”, the GI-50 was 0.0059 µg/mL in experiment [2]; 0.00011 µg/mL in experiment [3]; 0.0024 µg/mL in experiment [4]; 0.00029 µg/mL in experiment [5]; 0.0017 µg/mL in experiment [6]; 0.00091 µg/mL in experiment [7]. Besides, the LC-50 in experiment [2], in experiment [3], in experiment [4], in experiment [5], in experiment [6] and in experiment [7] was above 1 µg/mL each time. In addition, the TGI in experiment [2] was 0.29 µg/mL; in experiment [3], 0.011 µg/mL; in experiment [4], 0.0097 µg/mL; in experiment [5], 0.012 µg/mL; in experiment [6], 0.1 µg/mL; in experiment [7], above 1 µg/mL. This substance also returned an ED-50 in experiment [8] of 0.00586 µg/mL.
